Earlier results on one compound are cited in EP2018866A1, “Pharmaceutical compositions containing voriconazole” (SANDOZ AG, priority 2007, dated 2009).

Converted amounts (≈) assume the structure as drawn. Like-named read-outs stand apart in the source and are kept apart here.

With `C[C@@H](c1ncncc1F)[C@](O)(Cn1cncn1)c1ccc(F)cc1F` [Voriconazole, (2R,3S)-2-(2,4-Difluorophenyl)-3-(5-fluoro-4-pyrimidinyl)-1-(1H-1,2,4-triazol-1-yl)-butan-2-ol], the aqueous solubility by setting is: (at a pH 3) 200 µg/mL (≈ 573 µM); (at a pH 7) 610 µg/mL (≈ 1750 µM).

What is called aqueous solubility is how much of the substance goes into solution per volume.
